# Experimental data published in PMC10459710 (Viruses, 2023).
# How the values were obtained:
# [1] = CellTiter-Glo cell viability assay in Vero cells; format: cell-based, African green monkey; details: African green monkey, 72 h exposure
# [2] = system: HSV-1; experiment: Cytopathic effect; format: cell-based, Herpes simplex virus type 1 (strain H129); details: for IC50: 48 h; for Selective Index: SI = CC50/IC50, CPE reduction assay, Vero cells
# [3] = system: Vero cells; experiment: CellTiter-Glo cell viability assay in Vero cells; format: cell-based, African green monkey; details: 72 h exposure
# [4] = system: HSV-2; experiment: Anti-HSV-2 activity in Vero cells by plaque assay; format: cell-based, Herpes simplex virus type 2 (strain G); details: HSV-2, Vero cells
# [5] = CellTiter-Glo cell viability assay in HepG2 cells; format: cell-based; details: human, 72 h exposure
# [6] = system: HSV-1; experiment: Plaque reduction assay (viral titer in supernatant), HSV-1-infected Vero cells; format: cell-based, Herpes simplex virus type 1 (strain H129); details: for Viral titer: HSV-1 MOI 0.01, 48 h, supernatant
# [7] = system: HSV-1 IE, E, and L genes; experiment: HSV-1 IE, E and L gene expression (qRT-PCR and Western blot) in Vero cells; format: cell-based, Herpes simplex virus type 1 (strain H129)
# [8] = system: HSV-1; experiment: Plaque reduction assay, HSV-1-infected Hela cells; format: cell-based, Herpes simplex virus type 1 (strain H129); details: Human alphaherpesvirus 1, HSV-1 MOI 0.01, Hela cells, 48 h
# [9] = system: HSV-1; experiment: Virus attachment assay (IFA, anti-gD); format: cell-based, Herpes simplex virus type 1 (strain H129); details: BMS at 0.5, 5, and 50 µM, 4 °C, MOI 10
# [10] = CellTiter-Glo cell viability assay in Hela cells; format: cell-based; details: human, 72 h exposure
# [11] = system: cyclin B-dependent CDK1; details: read-out: in vitro IC50; cited from earlier work
# [12] = system: HSV-1; experiment: Plaque reduction assay, HSV-1-infected HepG2 cells; format: cell-based, Herpes simplex virus type 1 (strain H129); details: Human alphaherpesvirus 1, HSV-1 MOI 0.01, HepG2 cells, 48 h
# [13] = system: cycle E-dependent CDK2; details: read-out: in vitro IC50; cited from earlier work
# [14] = system: HSV-1; experiment: Virus entry assay (IFA, anti-ICP5); format: cell-based, Herpes simplex virus type 1 (strain H129)
# [15] = system: HSV-1 DNA; experiment: Intracellular and virion-associated HSV-1 DNA levels by real-time PCR; format: cell-based, Herpes simplex virus type 1 (strain H129); details: Vero cells, MOI 0.01, 24 h, qPCR
# [16] = system: HSV-1; experiment: BMS treatment during different time periods of the HSV-1 life cycle; format: cell-based, Herpes simplex virus type 1 (strain H129)
# [17] = system: HSV-1; experiment: Time-of-addition assay, HSV-1 in Vero cells, plaque assay readout; format: cell-based, Herpes simplex virus type 1 (strain H129)
# [18] = system: HCMV; parameters: method as in earlier work; details: cited from earlier work
# [19] = Human alphaherpesvirus 1, HSV-1 MOI 0.01, Vero cells, CPE reduction, ND = Not detectable, read-out: IC50
compound,measurement,setting,value
CCN1CCN(Cc2ccc(Nc3ncc(F)c(-c4cc(F)c5nc(C)n(C(C)C)c5c4)n3)nc2)CC1 [Abemaciclib],CC50 at 72 h,[1],29.1 µM
"Nc1nc2c(ncn2COCCO)c(=O)[nH]1 [Acyclovir, acyclovir]",IC50,[2]; [19],0.42 µM
same,Selective Index,[2],>238.10
same,CC50 at 72 h,[1],> 100 µM
CC(=O)Nc1cc(Oc2ccc3c(C(=O)Nc4ccc(CN5CCN(C)CC5)c(C(F)(F)F)c4)cccc3c2)ncn1 [BGG463],CC50,[3],18.5 µM
CCCCOc1c(C(=O)c2c(F)cc(C)cc2F)c[nH]c2nncc1-2 [BMS-265246],Selective Index,[4]; CC50/IC50,> 472
same,IC50,"[4]; Human alphaherpesvirus 2, plaque assay",1.06 µM
same,CC50 at 72 h,[5],> 500 µM
same,Viral titer,[6]; BMS 0.02 μM,5.90 log10PFU/mL
same,Viral titer,[6]; BMS 0.07 μM,5.87 log10PFU/mL
same,Viral titer,[6]; BMS 0.21 μM,5.85 log10PFU/mL
same,Viral titer,[6]; BMS 0.62 μM,5.76 log10PFU/mL
same,Viral titer,[6]; BMS 1.85 μM,5.01 log10PFU/mL
same,Viral titer,[6]; BMS 5.56 μM,3.40 log10PFU/mL
same,Viral titer,[6]; BMS 16.67 μM,2.60 log10PFU/mL
same,Viral titer,[6]; BMS 50 μM,2.24 log10PFU/mL
same,IC50,"[6]; Human alphaherpesvirus 1, HSV-1 MOI 0.01, Vero cells, 48 h, plaque assay",0.95 µM
same,"transcripts of the IE gene ICP27, the E gene ICP8, and the L gene gD","[7]; MOI 0.01, qRT-PCR at 4, 8, and 20 hpi",concentration-dependently suppressed
same,"protein levels of ICP4, ICP8, ICP5, and gB",[7]; Western blot at 24 hpi,reduced by BMS concentration-dependently
same,IC50,[8],0.18 µM
same,IC50,"[2]; Human alphaherpesvirus 1, Vero",0.08 µM
same,Selective Index,[2],>6250
same,binding of HSV-1 to Vero cells,[9],did not affect the binding
same,CC50 at 72 h,[10],189 µM
same,IC50,[11],0.006 µM
same,IC50,[12],1.03 µM
same,IC50,[13],0.009 µM
same,entry of HSV-1 to Vero cells,"[14]; BMS at 0.5, 5, and 50 µM, 37 °C 30 min, MOI 10",did not affect the entry
same,expression of ICP5 (IFA over 1-4 hpi),"[14]; Vero cells, MOI 10, 1, 2, 3, and 4 h at 37 °C",the expression of ICP5 was prevented
same,intracellular HSV-1 DNA levels,[15]; Hirt method,decreases concentration-dependently
same,virion-associated HSV-1 viral DNA levels,[15]; supernatant,reduced concentration-dependently
same,CC50 at 72 h,[1],> 500 µM
same,virus production (plaque assay),"[16]; 50 μM BMS at 5–10 and 10–15 hpi, MOI 0.1, 30 h of infection",significantly suppress virus production
same,"transcription of ICP27, ICP8, and gD","[16]; 50 μM BMS during 0–5, 5–10, 10–15, or 15–20 hpi, MOI 1, Vero cells",dramatically suppresses
same,production of progeny virions,[17]; pretreatment of the cells,significantly reduced
same,viral titer reduction,[17]; treatment started at 4 or 10 hpi until harvesting,less than one logarithm
COC(=O)[C@]1(Cc2ccc(O)c(CC=C(C)C)c2)OC(=O)C(O)=C1c1ccc(O)cc1 [Butyrolactone I],CC50 at 72 h,[1],151 µM
CCn1cnc2c(Nc3cccc(Cl)c3)nc(N[C@@H]3CCCC[C@@H]3N)nc21 [CGP74514A],reduction of HCMV replication compared with untreated controls,[18],~ 300 fold
COc1ccc(CNc2nc(N(CCO)CCO)nc3c2ncn3C(C)C)cc1 [CVT-313],CC50,[3],6.38 µM
CCc1cnn2c(NCc3ccc[n+]([O-])c3)cc(N3CCCC[C@H]3CCO)nc12 [Dinaciclib],CC50 at 72 h,[1],1.13 µM
CN1CC[C@H](c2c(O)cc(O)c3c(=O)cc(-c4ccccc4Cl)oc23)[C@H](O)C1 [Flavopiridol],CC50 at 72 h,[1],0.16 µM
COc1ccccc1-c1cc(Nc2cccc(CS(N)(=O)=O)c2)ncn1 [LDC000067],CC50,[3],14.4 µM
Cc1n[nH]c2ncc(C(=O)N3CCC[C@H]3c3ccc(Cl)cc3)cc12 [MSC2530818],IC50,[2]; [19],25 µM
same,Selective Index,[2],5.54
same,CC50 at 72 h,[1],138 µM
C=CS(=O)(=O)c1ccc(Nc2nc(OCC3CCCCC3)c3[nH]cnc3n2)cc1 [NU6300],CC50,[3],13.8 µM
Nc1cc(Nc2ccc(S(N)(=O)=O)cc2)ncn1 [PNU112455A],CC50,[3],156 µM
CC(C)[C@H](CO)Nc1nc(Nc2ccc(C(=O)O)c(Cl)c2)c2ncn(C(C)C)c2n1 [Purvalanol B],CC50 at 72 h,[1],73.5 µM
O=C1NC(=NCc2cccs2)S/C1=C\c1ccc2ncccc2c1 [Ro-3306],CC50,[3],14.1 µM
CC[C@H](CO)Nc1nc(NCc2ccccc2)c2ncn(C(C)C)c2n1 [Seliciclib],CC50 at 72 h,[1],18.5 µM
CN(C)C/C=C/C(=O)Nc1cccc(C(=O)Nc2cccc(Nc3ncc(Cl)c(-c4c[nH]c5ccccc45)n3)c2)c1 [THZ2],CC50,[3],0.42 µM
